Data reported in PMC10114720.

Key:
[1] = PDMS sheets cleaned by Soxhlet with ethyl acetate; batch shaking method with a mixture of all chemicals at several PDMS-mass to water-volume ratios and spiked levels; vials shaken on an orbital shaker at room temperature in the dark, sampled at two equilibration times; PDMS extracts and water quantified by LC-HRMS (Orbitrap); D from the slope of C_PDMS on C_w or their ratio; value is the mean over that pH's experiments (individual experiments in the SI's concentrations table), sd is the table's stdev; conditions: PDMS (polydimethylsiloxane silicone sheet), phosphate buffer at three target pH values (the paper's methods)
[2] = neutral chemical: log K is the mean of log D over all measurements at the three pH values (D shown independent of pH, paired t-test); sd is the table's stddev. PDMS sheets cleaned by Soxhlet with ethyl acetate; batch shaking method with a mixture of all chemicals at several PDMS-mass to water-volume ratios and spiked levels; vials shaken on an orbital shaker at room temperature in the dark, sampled at two equilibration times; PDMS extracts and water quantified by LC-HRMS (Orbitrap); D from the slope of C_PDMS on C_w or their ratio; conditions: PDMS (polydimethylsiloxane silicone sheet); phosphate buffer at three target pH values (the paper's methods)
[3] = monoprotic acid or base: log K of the neutral species extrapolated from the linear regression of D on the neutral fraction (from pKa and pH; the paper's eq. for monoprotic IOCs), the slope giving K of the neutral species; replicates column holds the table's 95% confidence limits. PDMS sheets cleaned by Soxhlet with ethyl acetate; batch shaking method with a mixture of all chemicals at several PDMS-mass to water-volume ratios and spiked levels; vials shaken on an orbital shaker at room temperature in the dark, sampled at two equilibration times; PDMS extracts and water quantified by LC-HRMS (Orbitrap); D from the slope of C_PDMS on C_w or their ratio; conditions: PDMS (polydimethylsiloxane silicone sheet); phosphate buffer at three target pH values (the paper's methods)

Structure (SMILES)	log D PDMS/w (apparent distribution ratio at the stated pH) ([1]; pH 3)	log D PDMS/w (apparent distribution ratio at the stated pH) ([1]; pH 7.4)	log K PDMS/w (neutral species) [2]	log D PDMS/w (apparent distribution ratio at the stated pH) ([1]; pH 11.5)	log K PDMS/w (neutral species) [3]
COC(=O)C(c1ccccc1Cl)N1CCc2sccc2C1 (centres unmarked)	1.25 log units; D and K as the pape	-0.5267 log units; D and K as the pape	0.9169 log units; D and K as the pape	–	–
CCCCCCCCCCCC(=O)N(CCO)CCO	2.742 log units; D and K as the pape	2.767 log units; D and K as the pape	2.753 log units; D and K as the pape	2.749 log units; D and K as the pape	–
CC(C)(C)NC(=O)[C@H]1CC[C@H]2[C@@H]3CC[C@H]4NC(=O)C=C[C@]4(C)[C@H]3CC[C@]12C	2.64 log units; D and K as the pape	2.691 log units; D and K as the pape	2.638 log units; D and K as the pape	2.582 log units; D and K as the pape	–
N#Cc1nn(-c2c(Cl)cc(C(F)(F)F)cc2Cl)c(N)c1C(F)(F)F	1.946 log units; D and K as the pape	1.927 log units; D and K as the pape	1.919 log units; D and K as the pape	1.883 log units; D and K as the pape	–
COCCOCCOCCOCCOC	0.372 log units; D and K as the pape	0.424 log units; D and K as the pape	0.442 log units; D and K as the pape	0.53 log units; D and K as the pape	–
CCCCOCCOCCOCc1cc2c(cc1CCC)OCO2	3.728 log units; D and K as the pape	3.685 log units; D and K as the pape	3.661 log units; D and K as the pape	3.574 log units; D and K as the pape	–
CCN(CC)C(=O)c1cccc(C)c1	1.611 log units; D and K as the pape	1.592 log units; D and K as the pape	1.611 log units; D and K as the pape	1.633 log units; D and K as the pape	–
CCC(C(N)=O)(C(N)=O)c1ccccc1	-0.586 log units; D and K as the pape	-0.585 log units; D and K as the pape	-0.5565 log units; D and K as the pape	-0.5033 log units; D and K as the pape	–
CN(C)S(=O)(=O)c1ccc(N)cc1	-0.06167 log units; D and K as the pape	-0.02167 log units; D and K as the pape	-0.02333 log units; D and K as the pape	0.01333 log units; D and K as the pape	–
O=C1NCCN1Cc1ccc(Cl)nc1	–	1.277 log units; D and K as the pape	1.372 log units; D and K as the pape	1.451 log units; D and K as the pape	–
CC(C)OC(=O)C(C)(C)Oc1ccc(C(=O)c2ccc(Cl)cc2)cc1	4.526 log units; D and K as the pape	4.273 log units; D and K as the pape	4.415 log units; D and K as the pape	4.425 log units; D and K as the pape	–
CCOC(=O)C(C)(C)Oc1ccc(Cl)cc1	1.764 log units; D and K as the pape	1.684 log units; D and K as the pape	1.711 log units; D and K as the pape	1.69 log units; D and K as the pape	–
CCNc1nc(N)nc(Cl)n1	0.21 log units; D and K as the pape	0.2883 log units; D and K as the pape	0.1961 log units; D and K as the pape	0.09 log units; D and K as the pape	–
CC(C)C(=O)Nc1ccc([N+](=O)[O-])c(C(F)(F)F)c1	1.476 log units; D and K as the pape	1.423 log units; D and K as the pape	–	–	1.525 log units; D and K as the pape
CCOC(=O)NCCOc1ccc(Oc2ccccc2)cc1	3.077 log units; D and K as the pape	2.994 log units; D and K as the pape	–	2.967 log units; D and K as the pape	3.121 log units; D and K as the pape
c1ccc2sc(NC3CCCCC3)nc2c1	2.092 log units; D and K as the pape	3.079 log units; D and K as the pape	–	3.04 log units; D and K as the pape	3.105 log units; D and K as the pape
Clc1cccc(Cl)c1NC1=NCCN1	0.07 log units; D and K as the pape	1.56 log units; D and K as the pape	–	–	2.618 log units; D and K as the pape
NC(=O)/N=C1\SCCN1Cc1ccc(Cl)nc1	0.2411 log units; D and K as the pape	0.3692 log units; D and K as the pape	–	0.4142 log units; D and K as the pape	0.4822 log units; D and K as the pape
O=C(O)CCC(=O)c1ccc(F)cc1	-0.02167 log units; D and K as the pape	–	–	–	0.05461 log units; D and K as the pape
CC(C)(C)c1ccc(S(N)(=O)=O)cc1	1.11 log units; D and K as the pape	1.067 log units; D and K as the pape	–	1.073 log units; D and K as the pape	1.285 log units; D and K as the pape
CCN(CC)c1ccc2c(C)cc(=O)oc2c1	2.535 log units; D and K as the pape	2.797 log units; D and K as the pape	–	2.809 log units; D and K as the pape	2.913 log units; D and K as the pape
c1ccc(-c2ccc(C(c3ccccc3)n3ccnc3)cc2)cc1 (centres unmarked)	2.122 log units; D and K as the pape	4.209 log units; D and K as the pape	–	4.169 log units; D and K as the pape	4.281 log units; D and K as the pape
CSc1nc(NC2CC2)nc(NC(C)(C)C)n1	2.006 log units; D and K as the pape	2.689 log units; D and K as the pape	–	2.624 log units; D and K as the pape	2.78 log units; D and K as the pape
c1ccc2c(c1)[nH]c1cnccc12	1.471 log units; D and K as the pape	2.208 log units; D and K as the pape	–	2.227 log units; D and K as the pape	2.353 log units; D and K as the pape
O=c1c2ccccc2[nH]c2ccccc12	1.351 log units; D and K as the pape	1.251 log units; D and K as the pape	–	1.334 log units; D and K as the pape	1.406 log units; D and K as the pape
CCC1(c2ccccc2)C(=O)NCNC1=O	1.032 log units; D and K as the pape	–	–	–	1.057 log units; D and K as the pape
c1ccc2[nH]c(-c3cscn3)nc2c1	0.5417 log units; D and K as the pape	1.69 log units; D and K as the pape	–	1.693 log units; D and K as the pape	1.855 log units; D and K as the pape
CCOC(=O)c1ccc(N)cc1	0.4988 log units; D and K as the pape	0.4322 log units; D and K as the pape	–	0.4489 log units; D and K as the pape	0.5546 log units; D and K as the pape
